Patent publication US20090255006A1, “Transgenic Zebrafish” (University of Georgia Research Foundation, Inc., priority 2008, published 2009)
Entries after “also recorded” stand apart in the source; their conditions may differ. Like-named read-outs stand apart in the source and are kept apart here.

Experiments:
sqt and cyc transcripts = test: Targeted injection of morpholinos into the YSL, morphology of live embryos; assay type: in vivo, zebrafish; conditions: 8 ng MO into YSL at 3 hpf
Description: Wild-type embryos were obtained from natural crosses of Wik fish. Collected embryos were maintained at 28.5° C. and staged according to morphological criteria (Kimmel et al., Dev. Dyn., 203:253-310 (1995). Translation blocking morpholinos against sqt and cyc have been described previously (Feldman and Stemple, Genesis, 30: 175-177 (2001); Karlen and Rebagliati, Genesis, 30: 126-128 (2001). The MO sequences are as follows: sqtMO: 5′-[…]-3′ (SEQ ID NO:1); sqtMIS: ATcTgAAAATgAAGcTAATAATgCAC-3′ (SEQ ID NO:2); cycMO: 5′-[…]-3′ (SEQ ID NO:3); cycMIS: 5′-GCcACTgCGAaGTGTGgTcAT-3′(SEQ ID NO:4). Nucleotides in lower case represent mismatches. The sqtMOs were tagged with lissamine, while the cycMOs were tagged with fluorescein. Embryos were injected with each MO at 3 hpf soon after formation of the YSL. The distribution of the MO in the YSL was verified 2 h after injection. Embryos with mislocalized MOs were removed from the experiments.
To test if sqt and cyc are required in the YSL, their function in this tissue was specifically knocked down by targeted injection of antisense morpholinos (MOs) directed against sqt and cyc transcripts. […] When cyc function alone is depleted from the YSL, all embryos have normal shields (100%, N=36) (FIG. 5E, arrow). At 24 hpf, the cyc-depleted embryos, are indistinguishable from embryos injected with control MOs (100%, N=22) (FIG. 5F). When sqt function is depleted from the YSL, by contrast, the majority of embryos lack the embryonic shield ([…], N=11) (FIG. 5G).

Nodal receptors [1] = test: Block of Nodal signaling with SB-505124 in Tg-SqtapGFPi embryos, gfp in situ hybridization; assay type: in vivo, zebrafish; conditions: 50 μM
Nodal receptors [2] = conditions: cited from earlier work

cycMO: translation blocking morpholino against cyc, 5′-GCGACTCCGAGCGTGTGCATGATG-3′ (SEQ ID NO:3), tagged with fluorescein (all phosphorodiamidate morpholino (PMO); fluorescein tag, position not given here)
embryos with normal shields (sqt and cyc transcripts; 6 hpf): 100%
embryos indistinguishable from embryos injected with control MOs (sqt and cyc transcripts; 24 hpf): 100%

sqtMO: translation blocking morpholino against sqt, 5′-ATGTCAAATCAAGGTAATAATCCAC-3′ (SEQ ID NO:1), tagged with lissamine (all phosphorodiamidate morpholino (PMO); lissamine tag, position not given here)
embryos lacking the embryonic shield (sqt and cyc transcripts; 6 hpf): 54%
embryos displaying mild cyclopia (sqt and cyc transcripts; 24 hpf): 16%

Cc1cccc(-c2[nH]c(C(C)(C)C)nc2-c2ccc3c(c2)OCO3)n1 [SB-505124]
gfp expression in the EVL (Nodal receptors [1]): reduced, but not eliminated; also recorded: reduced to a greater extent
gfp expression in the YSL (Nodal receptors [1]): consistently reduced, but not completely eliminated; also recorded: persists
gfp expression in the blastomeres (Nodal receptors [1]): eliminated; also recorded: reduced to a greater extent
overall levels of gfp expression (Nodal receptors [1]): reduced
phenotype of treated embryos (Nodal receptors [2]; 50 μM, added to embryos at 3 hpf or earlier): sufficient to phenocopy embryos lacking nodal-related gene function
phenotype of treated embryos (Nodal receptors [2]; later treatments, or lower doses): milder phenotypes
